Experimental data published in article PMC10076467 (EJNMMI Research, 2023).
Read-outs that look alike come from different tables or passages of the source.

How the values were obtained:
GluN2B receptors [1] = target: T1, GluN2B receptors (Rattus norvegicus, UniProt P35439+Q00960); experiment: PET displacement / pre-blocking of ^11C-NR2B-Me radioligands with Ro-25-6981, Lassen plots; type: in vivo; details: for BPND (SUVBL/SUVND−1), whole rat brain: Lassen (SUV) plots; for non-displaceable binding (X-axis intercept of Lassen plots): rat brain, pre-blocking with 0.25 mg/kg Ro-25-6981, on average; for displacement from peak value at 90 min: rat whole brain, Ro-25-6981 0.25 mg/kg i.v. 10 min after radioligand, n = 1
T1 construct: from tissue; host or cells: brain of living male rats (PET imaging)
T1 sequence (Q00960 27-1482, other chains not shown): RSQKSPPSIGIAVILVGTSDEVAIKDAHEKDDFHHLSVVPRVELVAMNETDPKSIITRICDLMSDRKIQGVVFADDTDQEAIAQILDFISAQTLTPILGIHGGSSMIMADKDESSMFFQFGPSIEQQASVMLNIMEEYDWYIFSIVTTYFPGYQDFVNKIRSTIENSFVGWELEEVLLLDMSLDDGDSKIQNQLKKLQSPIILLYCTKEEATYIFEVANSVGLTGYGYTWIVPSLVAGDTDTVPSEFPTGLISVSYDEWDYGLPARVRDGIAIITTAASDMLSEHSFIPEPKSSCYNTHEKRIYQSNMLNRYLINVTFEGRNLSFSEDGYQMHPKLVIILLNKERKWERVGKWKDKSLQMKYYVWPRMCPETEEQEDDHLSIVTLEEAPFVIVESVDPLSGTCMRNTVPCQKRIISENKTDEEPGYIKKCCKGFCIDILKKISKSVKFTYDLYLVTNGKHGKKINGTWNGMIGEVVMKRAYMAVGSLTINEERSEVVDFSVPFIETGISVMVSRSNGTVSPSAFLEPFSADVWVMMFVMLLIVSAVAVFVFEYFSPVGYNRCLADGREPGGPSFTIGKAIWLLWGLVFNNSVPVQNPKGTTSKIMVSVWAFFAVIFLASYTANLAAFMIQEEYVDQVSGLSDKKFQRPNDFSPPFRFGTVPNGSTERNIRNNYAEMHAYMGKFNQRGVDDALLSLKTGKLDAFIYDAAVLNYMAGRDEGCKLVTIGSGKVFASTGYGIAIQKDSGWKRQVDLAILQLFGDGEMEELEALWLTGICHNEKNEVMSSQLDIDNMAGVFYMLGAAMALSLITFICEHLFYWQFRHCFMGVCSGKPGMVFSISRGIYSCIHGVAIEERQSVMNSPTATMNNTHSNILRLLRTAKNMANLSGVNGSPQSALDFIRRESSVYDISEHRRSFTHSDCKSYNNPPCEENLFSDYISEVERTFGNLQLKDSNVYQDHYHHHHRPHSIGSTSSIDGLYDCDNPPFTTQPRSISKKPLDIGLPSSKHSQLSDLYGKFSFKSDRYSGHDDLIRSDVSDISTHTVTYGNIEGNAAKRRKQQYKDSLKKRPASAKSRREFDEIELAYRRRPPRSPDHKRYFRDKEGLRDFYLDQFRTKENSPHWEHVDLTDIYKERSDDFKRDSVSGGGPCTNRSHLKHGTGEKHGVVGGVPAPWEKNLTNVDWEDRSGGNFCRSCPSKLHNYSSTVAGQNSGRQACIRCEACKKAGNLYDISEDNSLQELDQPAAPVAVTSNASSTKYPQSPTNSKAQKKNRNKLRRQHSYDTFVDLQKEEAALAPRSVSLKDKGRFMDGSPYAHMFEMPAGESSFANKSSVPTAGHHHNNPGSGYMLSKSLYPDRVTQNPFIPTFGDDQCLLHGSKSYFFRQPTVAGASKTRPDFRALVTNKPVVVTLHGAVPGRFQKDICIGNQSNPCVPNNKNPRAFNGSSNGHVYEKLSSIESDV
Description: (§1) For radioligand injection, a polyethylene catheter (PE 10) was inserted into the penile vein of a male rat and then secured with tissue adhesive and tape. […] Body temperature was monitored with a rectal probe. All PET scans were performed on a microPET Focus 220 scanner (Siemens Medical Solutions) (7,8). Data were acquired in listmode and reconstructed with Fourier rebinning + 2D filtered backprojection. A transmission scan was acquired before radioligand injection for attenuation correction. Dynamic scanning began at the time of a one-minute intravenous bolus injection of the radioligand under study (55 ± 19 MBq; volume 0.2 to 1.0 mL). The injected mass dose was 3 ± 1 nmol/kg. Challenge agents were administered intravenously 10 minutes before the radioligand for pre-blocking studies or 10 minutes after the radioligand for displacement studies. Tomographic images were analyzed with pixel-wise modeling computer software (PMOD 2.6; PMOD Group). Regions-of-interest in the brain were delineated, and time-activity curves calculated as SUV versus time.
(§2) Pre-blocking and displacement experiments were performed to assess radioligand target engagement and radioligand selectivity in vivo. […] Areas-under the curve (AUCs) from time-activity curves between 20 and 90 minutes were calculated for each radioligand. AUCs obtained from the same production of radioligand were scaled to the value (or mean value) for the baseline experiment to give relative values (relative AUC20–90 min). […] Where data permitted, the dose-response curves were fitted with GraphPad Prism software (version 8.1.1; GraphPad) to estimate the ED50 values. A dummy value of 100 pmol per kg body weight was used for zero concentration of the challenge agent in the construction of these dose-response curves. Numerical data are expressed as mean ± S.D. for n>2, or as mean and range for n = 2.

GluN2B receptors [2] = target: T1, GluN2B receptors; experiment: ED50 for pre-blocking of GluN2B radioligand uptake in rat whole brain (PET); type: in vivo; details: for effect of pre-administration on whole rat brain radioactivity uptake of GluN2B radioligands: ^11C-NR2B-Me enantiomers (also ^11C-(S)-NR2B-SMe); for ED50 in rat whole brain in vivo ^11C-(+)-NR2B-Me: radioligand ^11C-(+)-NR2B-Me; for ED50 in rat whole brain in vivo ^11C-(+)-NR2B-Me / ED50 in rat whole brain in vivo ^11C-(−)-NR2B-Me: AUC 20-90 min; for ED50 in rat whole brain in vivo ^11C-(−)-NR2B-Me: radioligand ^11C-(−)-NR2B-Me
Description: as §1, §2

σ1 receptor = details: cited from earlier work
σ2 receptor = details: cited from earlier work
σ1 receptors = target: T2, σ1 receptors (Rattus norvegicus, UniProt Q9R0C9); experiment: ED50 for pre-blocking of ^18F-FTC146 uptake in rat whole brain (PET); type: in vivo
T2 construct: from tissue; host or cells: brain of living male rats (PET imaging)
T2 sequence (Q9R0C9 whole entry): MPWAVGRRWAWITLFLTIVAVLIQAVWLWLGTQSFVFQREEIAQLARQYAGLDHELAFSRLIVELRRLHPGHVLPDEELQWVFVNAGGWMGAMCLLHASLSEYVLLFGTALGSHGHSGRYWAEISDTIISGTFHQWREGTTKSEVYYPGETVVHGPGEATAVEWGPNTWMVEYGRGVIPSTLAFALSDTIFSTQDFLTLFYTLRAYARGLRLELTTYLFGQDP
Description: For radioligand injection, a polyethylene catheter (PE 10) was inserted into the penile vein of a male rat and then secured with tissue adhesive and tape. For dynamic scanning, the rats were secured with tape in the scanner and kept under 1.5% isoflurane anesthesia via a nose cone. Body temperature was monitored with a rectal probe. All PET scans were performed on a microPET Focus 220 scanner (Siemens Medical Solutions) (7,8). Data were acquired in listmode and reconstructed with Fourier rebinning + 2D filtered backprojection. A transmission scan was acquired before radioligand injection for attenuation correction. Dynamic scanning began at the time of a one-minute intravenous bolus injection of the radioligand under study (55 ± 19 MBq; volume 0.2 to 1.0 mL). The injected mass dose was 3 ± 1 nmol/kg. Challenge agents were administered intravenously 10 minutes before the radioligand for pre-blocking studies or 10 minutes after the radioligand for displacement studies. Tomographic images were analyzed with pixel-wise modeling computer software (PMOD 2.6; PMOD Group). Regions-of-interest in the brain were delineated, and time-activity curves calculated as SUV versus time.
Pre-blocking and displacement experiments were performed to assess radioligand target engagement and radioligand selectivity in vivo. Normally 4 doses of 0.01 mg/kg, 0.05 mg/kg, 0.25 mg/kg, and 1.25 mg/kg were used for preblocking experiments, and only 2 doses of 0.25 mg/kg and 1.25 mg/kg were used for displacement experiments. […] […] […] […] Where data permitted, the dose-response curves were fitted with GraphPad Prism software (version 8.1.1; GraphPad) to estimate the ED50 values. A dummy value of 100 pmol per kg body weight was used for zero concentration of the challenge agent in the construction of these dose-response curves. Numerical data are expressed as mean ± S.D. for n>2, or as mean and range for n = 2.

[3] = rat, cited from earlier work
guinea pig σ1 receptor = guinea pig σ1 receptor (Cavia porcellus, UniProt Q60492); experiment: PDSP σ1 receptor binding
Chain of guinea pig σ1 receptor (Q60492 whole entry): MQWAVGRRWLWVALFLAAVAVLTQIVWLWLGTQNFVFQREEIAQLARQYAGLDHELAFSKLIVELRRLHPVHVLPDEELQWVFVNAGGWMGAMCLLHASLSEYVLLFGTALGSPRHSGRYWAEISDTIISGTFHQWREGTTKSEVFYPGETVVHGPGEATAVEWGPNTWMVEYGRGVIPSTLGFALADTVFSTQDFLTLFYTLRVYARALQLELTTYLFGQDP
Source text: (§3) NR2B-Me was submitted to the PDSP for assessment of binding affinity against a wide range of other receptors and binding sites. A full listing of these receptors and binding sites is given in the Supplemental Results. Detailed assay protocols are available at the PDSP website (http://pdsp.cwru.edu).
(§4) Assessment of Binding Affinity against a Wide Range of Other Receptors and Binding Sites. NR2B-Me was submitted to the National Institute of Mental Health Psychoactive Drug Screening program (NIMH-PDSP) to assess binding affinity against a wide range of other receptors and binding sites (5-HT1A, 1B, 1D, 1E, 2A, 2A agonist, 2A antagonist, 2B, 2B agonist, 2B antagonist, 2C, 2C agonist, 2C antagonist, 3, 5A, 6, 7; α2; α2β2, α2β2, α3β2, α3β4, α4β2, α4β4, α7; α1A, 1A agonist, 1B, 1B agonist, 1B antagonist, 2A-2C; AMPA*; β1-3; BZPa1-3, a5, a6, rat brain site; Ca^2+-Channel; CB1-2, D1, 2, 2 agonist, 2 antagonist, 3-5; DAT; DOR; EP1-4; GABAA,B; GPR40,41,43; H1-4; HERG; IMIDAZOLINE 1; KA-R*; KOR, KORagonist, antagonist; M1, 1 agonist, 1 antagonist, 2, 3, 3 agonist, 3 antagonist, 4, 5, 5 agonist, 5 antagonist; MDR 1; mGluR1A,2,4,5,5-cloned,5-rat brain,6,8; MOR; Na^+-Channel; NET; NK1, 1 antagonist, 2, 2 antagonist, 3, 3 antagonist; NMDA; NMDA/MK801; NT-1; OXYTOCINagonist, antagonist; PAR1agonist, antagonist; PCP; PKCA, B, D, E, G; PTHR2, Purinergicagonist, antagonist; SET; σ1,2; V1, 1 agonist, 1 antagonist, 2, 2 agonist, 2 antagonist, 3, 3 agonist, 3 antagonist, VMAT1, 2).

PC12 cell σ2 receptors = target: T3, PC12 cell σ2 receptors (Rattus norvegicus, UniProt Q5U3Y7); experiment: PDSP σ2 receptor binding
T3 construct: endogenous in cells; host or cells: PC12 cells
T3 sequence (Q5U3Y7 1-176): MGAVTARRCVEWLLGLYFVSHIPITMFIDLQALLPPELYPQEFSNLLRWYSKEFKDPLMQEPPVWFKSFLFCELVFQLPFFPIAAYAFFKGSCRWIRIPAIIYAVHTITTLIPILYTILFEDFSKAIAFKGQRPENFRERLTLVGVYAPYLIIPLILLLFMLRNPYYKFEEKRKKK
Source text: as §3, §4

[4] = design: method as in PMID 30030340; details: rhesus monkeys, PET; cited from earlier work
[5] = PET, sixty minutes after injection
[6] = 30 min after intravenous injection
[7] = 45 min after intravenous injection

## COc1ccc2c(c1)CCN(CCCCc1ccc([11CH3])cc1)CC2O (stereo not drawn) [^11C-(+)-NR2B-Me]
GluN2B receptors [1]
  BPND (SUVBL/SUVND−1), whole rat brain: 5
  non-displaceable binding (X-axis intercept of Lassen plots): about 0.42 SUV
  displacement from peak value at 90 min: 46%

## CN(C)CCN(C)CCc1ccc(Cl)c(Cl)c1 [BD1047]
GluN2B receptors [2]
  effect of pre-administration on whole rat brain radioactivity uptake of GluN2B radioligands: minimal effects
GluN2B receptors [2]; pre-blocking
  ED50 in rat whole brain in vivo ^11C-(+)-NR2B-Me: 555 nmol/kg
  ED50 in rat whole brain in vivo ^11C-(−)-NR2B-Me: 900 nmol/kg
GluN2B receptors [2]; pre-blocking, radioligand as printed in Table 3 head
  ED50 in rat whole brain in vivo ^11C-(−)-NR2B-SMe: > 1000 nmol/kg
σ1 receptor; reference radioligand ^3H-pentazocine, ref 39, read-out: Ki for σ1
  Ki: 0.9 nM
σ2 receptor; reference radioligand ^3H-DTG, ref 39, read-out: Ki for σ2
  Ki: 47 nM
σ1 receptors; radioligand ^18F-FTC146, AUC 20-120 min
  ED50 in rat whole brain in vivo ^18F-FTC146: 169 nmol/kg

## [11CH3]Oc1ccc2c(c1)CCN(CCCCc1ccccc1)C[C@@H]2O [(R)-^11C-Me-NB1]
[3]; [5]
  radioactivity concentration in cerebellum as % of that in cortex: 79%
  radioactivity concentration in cerebellum as % of that in hippocampus: 74%
  radioactivity concentration in cerebellum as % of that in striatum: 75%
  radioactivity concentration in cerebellum as % of that in thalamus: 83%

## COc1ccc2c(c1)CCN(CCCCc1ccc(C)cc1)CC2O (single isomer, unassigned; (-)) [(−)-NR2B-Me]
Guinea pig σ1 receptor
  Ki: 42 nM
PC12 cell σ2 receptors
  Ki: 110 nM

## OC12C3C4CC5C6C4C1C6C(C53)N2CCc1cccc(F)c1 (stereo not drawn) [TC1]
GluN2B receptors [2]
  effect of pre-administration on whole rat brain radioactivity uptake of GluN2B radioligands: strong pre-blocking effects
GluN2B receptors [2]; pre-blocking
  ED50 in rat whole brain in vivo ^11C-(+)-NR2B-Me: 64 nmol/kg
  ED50 in rat whole brain in vivo ^11C-(−)-NR2B-Me: 48 nmol/kg
σ1 receptor; reference radioligand ^3H-pentazocine, ref 40, read-out: Ki for σ1
  Ki: 10 nM
σ2 receptor; reference radioligand ^3H-DTG, ref 40, read-out: Ki for σ2
  Ki: 370 nM

## COc1ccc2c(c1)CCN(CCCCc1ccc(C)cc1)CC2O (single isomer, unassigned; (+)) [(+)-NR2B-Me]
Guinea pig σ1 receptor
  Ki: 91 nM
PC12 cell σ2 receptors
  Ki: 100 nM

## COc1ccc2c(c1)CCN(CCCCc1ccc(SC)cc1)C[C@H]2O [(S)-NR2B-SMe]
σ1 receptor; read-out: σ1 Ki
  Ki: 24 nM
σ2 receptor; read-out: σ2 Ki
  Ki: 140 nM
σ1 receptors; rat whole brain
  ED50 versus ^18F-FTC146: exceeded 1 µmol per kg body weight

## COc1ccc2c(c1)CCN(CCCCc1ccccc1[18F])C[C@@H]2O [^18F-(R)-OF-Me-NB1]
[4]
  SUVR relative to cerebellum, cortex: 1.37
  SUVR relative to cerebellum, hippocampus: 1.36
  SUVR relative to cerebellum, striatum: 1.30
  SUVR relative to cerebellum, thalamus: 1.33
[3]; [6]
  radioactivity in cerebellum as % of that in cortex: 73%
  radioactivity in cerebellum as % of that in hippocampus: 74%
  radioactivity in cerebellum as % of that in striatum: 77%
  radioactivity in cerebellum as % of that in thalamus: 75%

## O=C(OCCN1CCOCC1)C1(c2ccccc2)CCCCC1 [PRE-084]
GluN2B receptors [2]; pre-blocking
  ED50 in rat whole brain in vivo ^11C-(−)-NR2B-Me: > 1000 nmol/kg

## COc1ccc(CCN2CCN(CCCc3ccccc3)CC2)cc1OC [SA4503]
GluN2B receptors [2]
  effect of pre-administration on whole rat brain radioactivity uptake of GluN2B radioligands: strong pre-blocking effects
GluN2B receptors [2]; pre-blocking
  ED50 in rat whole brain in vivo ^11C-(+)-NR2B-Me: 41 nmol/kg
  ED50 in rat whole brain in vivo ^11C-(−)-NR2B-Me: 43 nmol/kg
σ1 receptor; reference radioligand ^3H-pentazocine, ref 38, 43, read-out: Ki for σ1
  Ki: 4.6 nM
σ1 receptor; reference radioligand ^3H-pentazocine, ref 41, 42, read-out: Ki for σ1
  Ki: 17.4 nM
σ2 receptor; reference radioligand ^3H-DTG, ref 38, 43, read-out: Ki for σ2
  Ki: 63 nM
σ2 receptor; reference radioligand ^3H-DTG, ref 41, 42, read-out: Ki for σ2
  Ki: 1780 nM

## CC(C)=CCN1CC[C@]2(C)c3cc(O)ccc3C[C@H]1[C@H]2C [(+)-Pentazocine]
GluN2B receptors [2]; pre-blocking
  ED50 in rat whole brain in vivo ^11C-(−)-NR2B-Me: > 1000 nmol/kg

## (+)-SKF10047
σ1 receptor; reference radioligand ^3H-pentazocine, ref 48, read-out: Ki for σ1
  Ki: 48 nM
σ2 receptor; reference radioligand ^3H-DTG, ref 48, read-out: Ki for σ2
  Ki: 625 nM

## COc1ccc2c(c1)CCN(CCCCc1ccc([11CH3])cc1)CC2O (stereo not drawn) [^11C-(−)-NR2B-Me]
GluN2B receptors [1]
  BPND (SUVBL/SUVND−1), whole rat brain: 5
  non-displaceable binding (X-axis intercept of Lassen plots): about 0.42 SUV
  displacement from peak value at 90 min: 63%

## COc1ccc2c(c1)CCN(CCCCc1ccc(SC)cc1)C[C@@H]2O [(R)-NR2B-SMe]
σ1 receptor; read-out: σ1 Ki
  Ki: 88 nM
σ2 receptor; read-out: σ2 Ki
  Ki: 110 nM

## Oc1ccc2c(c1)CCN(CCCCc1ccc([18F])cc1)C[C@@H]2O [(R)-^18F-PF-NB1]
[3]; [7]
  radioactivity in cerebellum as % of that in cortex: 85%
  radioactivity in cerebellum as % of that in hippocampus: 110%
  radioactivity in cerebellum as % of that in striatum: 95%
  radioactivity in cerebellum as % of that in thalamus: 92%

## COC(=O)C1(c2ccc(C)cc2)CC1CN1CCC(O)(c2ccccc2)CC1 (racemic) [( ±)-PPCC]
GluN2B receptors [2]; pre-blocking
  ED50 in rat whole brain in vivo ^11C-(−)-NR2B-Me: > 1000 nmol/kg
σ1 receptor; reference radioligand ^3H-pentazocine, ref 45, read-out: Ki for σ1
  Ki: 1.5 nM
σ2 receptor; reference radioligand ^3H-DTG, ref 45, read-out: Ki for σ2
  Ki: 50.8 nM
